Test results reported in ChEMBL document CHEMBL4118183, “Lipophilic methylene blue analogues enhance mitochondrial function and increase frataxin levels in a cellular model of Friedreich's ataxia” (Bioorg Med Chem, 2018).
Activity calls are given as the source filed them. No cut-off for these calls is given here.

Tests used:
[1] = test system: Friedreich's ataxia lymphocyte; test: Cytoprotective activity against rotenone-induced cytotoxicity in human Friedreich's ataxia lymphocytes assessed as increase in cell viability at 250 to 2500 nM preincubated for 12 hrs followed by complex 1 inhibitor rotenone addition measured after 16 hrs by calceinAM ester/ethidium homodimer-1 staining based flow cytometry; assay type: functional
[2] = Increase in frataxin protein expression levels in FRDA patient derived Friedreich's ataxia lymphocytes at 50 nM after 24 to 48 hrs by ELISA relative to control; assay type: functional, Homo sapiens, Friedreich's ataxia lymphocyte
[3] = Cytotoxicity against human Friedreich's ataxia lymphocytes assessed as cell viability by measuring dead cells at 250 nM after 48 hrs by calceinAM ester/ethidium homodimer-1 staining based flow cytometry (reference value: 10.6%); details: friedreich's ataxia lymphocyte, 0.25 µM
[4] = Cytotoxicity against human Friedreich's ataxia lymphocytes assessed as cell viability by measuring live cells at 2500 nM after 48 hrs by calceinAM ester/ethidium homodimer-1 staining based flow cytometry (reference value: 89.3%); parameters: species or system Friedreich's ataxia lymphocyte; details: read-out: Activity
[5] = test system: Friedreich's ataxia lymphocyte; test: Increase in total ATP levels in human Friedreich's ataxia lymphocytes at 0.5 to 2.5 uM after 24 hrs by bioluminescence assay; assay type: functional, cell-based
[6] = test system: Friedreich's ataxia lymphocyte; test: (§1) Induction of mitochondrial biogenesis in FRDA patient derived Friedreich's ataxia lymphocytes assessed as increase in COX-1/SDH-A protein levels at 250 nM after 24 to 48 hrs by ELISA; assay type: functional; details: Homo sapiens
[7] = Cytotoxicity against human Friedreich's ataxia lymphocytes assessed as cell viability by measuring live cells at 250 nM after 48 hrs by calceinAM ester/ethidium homodimer-1 staining based flow cytometry (reference value: 89.3%); parameters: species or system Friedreich's ataxia lymphocyte; details: read-out: Activity
Homo sapiens [8] = organism: Homo sapiens; test: Cytoprotective activity against BSO-treated human Friedreich's ataxia fibroblasts assessed as increase in cell viability at 25 to 50 nM incubated overnight followed by BSO addition measured after 48 hrs by calceinAM ester/ethidium homodimer-1 staining based flow cytometry; assay type: functional
[9] = Cytotoxicity against human Friedreich's ataxia lymphocytes assessed as cell viability by measuring live cells at 250 nM after 24 hrs by calceinAM ester/ethidium homodimer-1 staining based flow cytometry (reference value: 88.2%); parameters: species or system Friedreich's ataxia lymphocyte; details: read-out: Activity
[10] = Cytotoxicity against human Friedreich's ataxia lymphocytes assessed as cell viability by measuring dead cells at 2500 nM after 48 hrs by calceinAM ester/ethidium homodimer-1 staining based flow cytometry (reference value: 10.6%); details: friedreich's ataxia lymphocyte, 2.5 µM
[11] = test system: Friedreich's ataxia lymphocyte; test: (§2) Increase in frataxin protein expression levels in FRDA patient derived Friedreich's ataxia lymphocytes at 250 nM after 24 to 48 hrs by ELISA; assay type: functional; details: Homo sapiens
[12] = Cytotoxicity against human Friedreich's ataxia lymphocytes assessed as cell viability by measuring live cells at 2500 nM after 24 hrs by calceinAM ester/ethidium homodimer-1 staining based flow cytometry (reference value: 88.2%); parameters: species or system Friedreich's ataxia lymphocyte; details: read-out: Activity
[13] = test system: Friedreich's ataxia lymphocyte; test: Inhibition of DEM-induced ROS production in human Friedreich's ataxia lymphocytes incubated for 16 hrs followed by DEM treatment for 80 mins by DCFH-DA dye based flow cytometry; assay type: functional, cell-based
[14] = Induction of inner mitochondrial membrane potential depolarization in human Friedreich's ataxia lymphocytes assessed as JC-1 monomers at 2500 nM after 16 hrs by JC1-staining based flow cytometry (reference value: 17.3%); assay type: functional, Friedreich's ataxia lymphocyte
[15] = Induction of mitochondrial biogenesis in FRDA patient derived Friedreich's ataxia lymphocytes assessed as increase in COX-1/SDH-A protein levels at 50 nM after 24 to 48 hrs by ELISA relative to control; assay type: functional, Homo sapiens, Friedreich's ataxia lymphocyte
[16] = Induction of inner mitochondrial membrane potential depolarization in human Friedreich's ataxia lymphocytes assessed as JC-1 monomers at 250 nM after 16 hrs by JC1-staining based flow cytometry (reference value: 17.3%); assay type: functional, Friedreich's ataxia lymphocyte
[17] = Induction of inner mitochondrial membrane potential depolarization in human Friedreich's ataxia lymphocytes assessed as JC-1 aggregates at 2500 nM after 16 hrs by JC1-staining based flow cytometry (reference value: 83%); assay type: functional, Friedreich's ataxia lymphocyte
Homo sapiens [18] = organism: Homo sapiens; test: (§3) Cytoprotective activity against BSO-treated human Friedreich's ataxia fibroblasts assessed as increase in cell viability incubated overnight followed by BSO addition measured after 48 hrs by calceinAM ester/ethidium homodimer-1 staining based flow cytometry; assay type: functional
[19] = as §3; assay type: functional
[20] = Induction of inner mitochondrial membrane potential depolarization in human Friedreich's ataxia lymphocytes assessed as JC-1 aggregates at 250 nM after 16 hrs by JC1-staining based flow cytometry (reference value: 83%); assay type: functional, Friedreich's ataxia lymphocyte
[21] = Cytotoxicity against human Friedreich's ataxia lymphocytes assessed as cell viability by measuring dead cells at 250 nM after 24 hrs by calceinAM ester/ethidium homodimer-1 staining based flow cytometry (reference value: 11.2%); details: friedreich's ataxia lymphocyte, 0.25 µM
[22] = test system: Friedreich's ataxia lymphocyte; test: Increase in total ATP levels in human Friedreich's ataxia lymphocytes at 100 nM after 24 hrs by bioluminescence assay; assay type: functional, cell-based
[23] = Cytotoxicity against human Friedreich's ataxia lymphocytes assessed as cell viability by measuring dead cells at 2500 nM after 24 hrs by calceinAM ester/ethidium homodimer-1 staining based flow cytometry (reference value: 11.2%); details: friedreich's ataxia lymphocyte, 2.5 µM
[24] = test system: Friedreich's ataxia lymphocyte; test: Inhibition of DEM-induced ROS production in human Friedreich's ataxia lymphocytes at 250 to 2500 nM incubated for 16 hrs followed by DEM treatment for 80 mins by DCFH-DA dye based flow cytometry; assay type: functional, cell-based
[25] = test system: Friedreich's ataxia lymphocyte; test: Increase in total ATP levels in human Friedreich's ataxia lymphocytes at 0.1 to 0.5 uM after 24 hrs by bioluminescence assay; assay type: functional, cell-based
[26] = test system: Friedreich's ataxia lymphocyte; test: Increase in total ATP levels in human Friedreich's ataxia lymphocytes at 2.5 uM after 24 hrs by bioluminescence assay; assay type: functional, cell-based
[27] = as §1; assay type: functional, Homo sapiens, Friedreich's ataxia lymphocyte
[28] = as §2; assay type: functional, Homo sapiens, Friedreich's ataxia lymphocyte
[29] = test system: Friedreich's ataxia lymphocyte; test: Restoration of total aconitase activity in FRDA patient derived Friedreich's ataxia lymphocytes at 50 to 250 nM after 5 days by colorimetric assay; assay type: functional, cell-based; details: Homo sapiens
Mus musculus = organism: Mus musculus; test: Substrate activity at NADH-ubiquinone oxidoreductase in mouse liver mitochondrial membrane fractions assessed as induction of electron flow from complex-1 by measuring NADH oxidation at 5 uM after 5 mins in presence of complex 1 blocker rotenone at 0.1 uM using NADH and coenzyme Q1; assay type: cell membranes

CCCCCCCCCCCc1cc2nc3ccc(N(C)C)cc3sc-2cc1=[N+](C)C.[I-]
Activity [1]: Active
Activity [2]: >=10%
Activity [3]: 14.2%
viability at 48 h, 2.5 µM [4]: 16.2%
Activity [5]: inactive
Activity [6]: inactive
viability at 48 h, 0.25 µM [7]: 85.7%
Activity (Homo sapiens [8]): Active
viability at 24 h, 0.25 µM [9]: 89.5%
Activity [10]: 83.5%
Activity [11]: inactive
viability at 24 h, 2.5 µM [12]: 45.1%
inhibition [13]: Dose-dependent effect
Activity [14]: 46.9%
Activity [15]: >=15%
Activity [16]: 17.4%
Activity [17]: 54.8%
Activity (Homo sapiens [18]): Dose-dependent effect
EC50 [19]: 35 nM
Activity [20]: 82.9%
Activity [21]: 10.2%
Activity [22]: inactive
Activity [23]: 54.7%

CCCCCCCCCCCCCCCCCc1cc2nc3ccc(N4CCOCC4)cc3sc-2cc1=[N+]1CCOCC1.[I-]
Activity [1]: Active
Activity [3]: 12.4%
viability at 48 h, 2.5 µM [4]: 79%
inhibition [24]: Active
Activity [6]: inactive
viability at 48 h, 0.25 µM [7]: 87.4%
Activity [25]: Active
viability at 24 h, 0.25 µM [9]: 91.3%
Activity [10]: 20.8%
Activity [11]: inactive
viability at 24 h, 2.5 µM [12]: 87.9%
Activity [14]: 20.7%
Activity [16]: 16%
Activity [17]: 79.8%
Activity (Homo sapiens [18]): Dose-dependent effect
EC50 [19]: 52 nM
Activity [20]: 84.2%
Activity [21]: 8.6%
Activity [23]: 12%
Activity [26]: inactive

CCCCCCCCCCCCCc1cc2nc3ccc(N(C)C)cc3sc-2cc1=[N+](C)C.[I-]
Activity [1]: Active
Activity [3]: 13.1%
viability at 48 h, 2.5 µM [4]: 21.6%
Activity [5]: inactive
Activity [27]: >=20%
viability at 48 h, 0.25 µM [7]: 86.7%
Activity (Homo sapiens [8]): Active
viability at 24 h, 0.25 µM [9]: 89.3%
Activity [10]: 78%
Activity [28]: >=15%
viability at 24 h, 2.5 µM [12]: 41.3%
inhibition [13]: Dose-dependent effect
Activity [14]: 72.2%
Activity [16]: 17.6%
Activity [17]: 30.6%
Activity (Homo sapiens [18]): Dose-dependent effect
EC50 [19]: 37 nM
Activity [20]: 82.8%
Activity [21]: 10.3%
Activity [22]: inactive
Activity [23]: 58.5%

CN(C)c1ccc2nc3ccc(N(C)C)cc3[s+]c2c1.[Cl-] [METHYLENE BLUE ANHYDROUS]
Activity [2]: >=10%
Activity [3]: 22.5%
Activity [27]: >=20%
Activity [10]: 84.3%
Activity [28]: >=15%
Activity [14]: 51.2%
Activity [15]: >=15%
Activity [16]: 20.2%
Activity [17]: 49%
EC50 [19]: 75 nM
Activity [20]: 80.3%
Activity [21]: 14.3%
Activity [23]: 39.6%

CCCCCCCCCCCCCCCCCc1cc2nc3ccc(N(C)C)cc3sc-2cc1=[N+](C)C.[I-]
Activity [1]: Active
Activity [3]: 12.2%
viability at 48 h, 2.5 µM [4]: 86.2%
inhibition [24]: Active
Activity [6]: inactive
viability at 48 h, 0.25 µM [7]: 87.7%
Activity [25]: Active
viability at 24 h, 0.25 µM [9]: 91%
Activity [10]: 13.5%
Activity [11]: inactive
viability at 24 h, 2.5 µM [12]: 89.2%
Activity [14]: 23.4%
Activity [16]: 15.2%
Activity [17]: 77.1%
Activity (Homo sapiens [18]): Dose-dependent effect
EC50 [19]: 48 nM
Activity [20]: 85.3%
Activity [21]: 8.8%
Activity [23]: 10.5%
Activity [26]: inactive

CN(C)c1ccc2nc3ccc(=[N+](C)C)cc-3sc2c1 [METHYLENE BLUE ANHYDROUS]
Activity [1]: Active
viability at 48 h, 2.5 µM [4]: 15.4%
Activity [5]: inactive
viability at 48 h, 0.25 µM [7]: 77.5%
viability at 24 h, 0.25 µM [9]: 85.4%
viability at 24 h, 2.5 µM [12]: 60.2%
inhibition [13]: Dose-dependent effect
Activity (Homo sapiens [18]): Dose-dependent effect
Activity [22]: inactive
Activity [29]: Active
Activity (Mus musculus): Active

CCCCCc1cc2nc3ccc(N(C)C)cc3sc-2cc1=[N+](C)C.[I-]
Activity [1]: Active
Activity [3]: 21%
viability at 48 h, 2.5 µM [4]: 4.4%
Activity [5]: inactive
inhibition [24]: Active
Activity [27]: >=20%
viability at 48 h, 0.25 µM [7]: 78.7%
viability at 24 h, 0.25 µM [9]: 82.6%
Activity [10]: 95.2%
Activity [28]: >=15%
viability at 24 h, 2.5 µM [12]: 37.5%
Activity [14]: 70.9%
Activity [16]: 16.9%
Activity [17]: 31.4%
Activity (Homo sapiens [18]): Dose-dependent effect
EC50 [19]: 66 nM
Activity [20]: 83.5%
Activity [21]: 17.2%
Activity [22]: inactive
Activity [23]: 62.4%
Activity (Mus musculus): Active
